In patent publication US20220160723A1, “PHARMACOLOGICAL MITIGATION OF LATE-STAGE TOXEMIA” (priority 2019, published 2022):
Entries after “also recorded” stand apart in the source; their conditions may differ. Read-outs that look alike come from different tables or passages of the source.

Key:
[1] = system: Human Brain Microvascular Endothelial cells (HBMEC); format: cell-based; settings: for ET induced cortical actin rearrangement: HBMEC, 4 h; for ET-mediated actin remodeling / rearrangement: cultured endothelial cells (HBMEC), summary statement
[2] = system: ET-induced footpad swelling (edema); assay: Mouse footpad swelling (edema) assay after ET injection; format: in vivo, mice; settings: for protection against ET-induced footpad swelling (edema): in vivo mouse model, pre-treated mice, summary statement; for footpad swelling (edema) following ET injection: mice, 0.15 μg ET/paw (FIG. 5)
[3] = system: Human Brain Microvascular Endothelial cells (HBMEC); assay: Medium throughput quantification of whole cell area (CellMask green); format: cell-based; settings: ET 250 ng/ml, 4 h, 8 wells per treatment (FIG. 2D, 3C)
CFL1 = assay: Western blot of total and phosphorylated CFL1 (Serine 3); format: cell-based, human; settings: HBMEC
Protocol: FIGS. 4A-4I show ET induced IGF-1R, MEK and Rac1 signaling activate (dephosphorylate) the actin depolymerizing protein coflin (CFL1). […] ET induced a significant decrease in phosphorylated CFL1. (see FIG. 4B). FIG. 4B show levels of phosphorylated CFL1 relative to total CFL1 quantified from 2 independent experiments. p values indicate standard deviation. […] Total and phosphorylated CFL1 (Serine 3) levels were determined by western blot. […] (see FIG. 4D). FIG. 4D show levels of phosphorylated CFL1 relative to total CFL1 in whole cell lysates from HBMEC treated with ET in the presence or absence of IGF-1R inhibitor AG1024 and quantified from 2 independent experiments. […] Total and phosphorylated CFL1 (Serine 3) levels were determined by western blot. […] Total and phosphorylated CFL1 (Serine 3) levels were determined by western blot. […] (see FIG. 4G). FIG. 4G show levels of phosphorylated CFL1 relative to total CFL1 in whole cell lysates from HBMEC treated with ET in the presence or absence of the Rac1 inhibitor NSC23766 and quantified from 2 independent experiments. p values indicate standard deviation. […] Activation (dephosphorylation) of SSH1 in ET-treated and control cells was assessed by monitoring the levels of SSHI phosphorylated at Serine 978 relative to total SSHI in whole cell lysates by western blot. SSHI phosphorylation was reduced relative to untreated control cells at 240 min after ET treatment. […] Total and phosphorylated CFL1 (Serine 3) levels were determined by western blot.

Rac1 = assay: Rac1-GTP pull-down with PAK-Beads and western blot; format: cell-based, human; settings: HBMEC, ET 250 ng/ml
Protocol: FIGS. 2A-2E show ET induced actin rearrangement is dependent on Rac1 activation. […] Whole cell lysates were incubated with PAK-Beads, which specifically bind to GTP-bound Rac1. Bead bound Rac1-GTP and total Rac1 levels in cell lysate were determined by western blot with anti-Rac1 antibody. ET induced significant increase in Rac1-GTP (i.e. active Rac1) levels (see FIG. 2B). […] Cells were fixed and stained with cell mask green to visualize cytoplasm. Cell area was quantified from 8 wells for each treatment («-number of cells) using automated image analysis software. […] MRMEC were grown to confluence in transwell inserts, and treated with ET (250 ng/ml) for 24h, in the presence or absence of Rac1 inhibitor NSC23766 (50 μM). Changes in monolayer permeability were assessed by assaying the diffusion of Evans blue dye from apical to basal chamber of transwell inserts. […] Data represent mean changes in monolayer permeability from 2 independent experiments. p value indicates standard deviation.
FIGS. 3A-3H show ET-mediated Rac1 activation and actin rearrangement is dependent on an early induction of IGF-1R, PI3K and MEK signaling. […] Activation of IGF-1R in ET˜ireated and control cells was assessed by monitoring the levels of IGF-1R phosphorylated at Tyrosine 1135 and 1136 relative to total IGF-1R in whole cell lysates by western blot. ET induced a rapid (within 10 minutes), but transient activation of IGF-1R. […] Cells were fixed and stained with CellMask green to visualize cytoplasm. Cell area was quantified from 8 wells for each treatment (n-number of cells) using automated image analysis software. […] Whole cell lysates were incubated with PAK-Beads, which specifically bind to GTP-bound Rac1 . Bead bound Rac1-GTP and total Rac1 levels in cell lysate were determined by western blot with anti-Rac 1 antibody. […] Total and phosphorylated […] (Thr 308 and Ser 473), as well as those of ERK (Thr 202 and Tyr 204) was determined by western blot. ET induced a rapid (within 10-20 minutes) phosphorylation of AKT and ERK. […] Changes in monolayer to permeability were assessed by assaying the diffusion of Evans blue dye from apical to basal chamber of transwell. […] Data represent mean changes in monolayer permeability from 2 independent experiments. p value indicates standard deviation. […] Whole cell lysates were incubated with PAK-Beads, which specifically bind to GTP-hound RacL Bead bound Rac1-GTP and total Rac1 levels in cell lysate were determined by western blot with anti-Rac1 antibody.

HBMEC monolayer = assay: Transwell monolayer permeability (Evans blue dye diffusion); format: cell-based, human; settings: for ET induced disruption of monolayer integrity: HBMEC in transwell inserts, ET 250 ng/ml, 24 h, inhibitor 50 μM (FIG. 2E, 3G)
[4] = ET 250 ng/ml, phalloidin (FIG. 3B, 3F)
[5] = ET 250 ng/ml, 4 h (FIG. 4C, 4E, 4I)
[6] = cultured HBMEC model, summary statement

Question: `CC(C)(C)c1cc(C=C(C#N)C#N)cc(Br)c1O` [AG1024, 2-[(3-bromo-5˜iert-butyl-4-hydroxyphenyl)methylidene]propanedinitile] was tested. Which “ET induced cortical actin rearrangement” value [1, 4] did it give?
Answer: The value was “almost completely inhibited”.

Question: And the “ET-mediated actin remodeling / rearrangement” value [1]?
Answer: Its value is “strongly inhibit; also recorded: almost completely rescue”.

Question: And the “protection against ET-induced footpad swelling (edema)” value (“protection” below) [2]?
Answer: Its value is “near complete protection; also recorded: almost complete protection”.

Question: What about the “footpad swelling (edema) following ET injection” value ([2]; pre-treatment 10 mg/kg) of the same compound?
Answer: The value was “consistently block”.

Question: What about the “ET induced cell area reduction” value [3] of the same compound?
Answer: The value was “completely .rescued”.

Question: And the “ET induced CFL1 activation (dephosphorylation)” value (CFL1; [5])?
Answer: Its value is “significantly inhibited”.

Question: What about the “ET induced Rac1 activation (Rac1-GTP)” value (Rac1; 4 h (FIG. 3D)) of the same compound?
Answer: Its value is “completely rescued”.

Question: What about the “ET induced Rac1 activation (Rac1-GTP)” value (Rac1; 4 h (FIG. 3H)) of the same compound?
Answer: Its value is “significantly inhibited”.

Question: What about the “ET-mediated cell-cell barrier disruption” value (HBMEC monolayer; [6]) of the same compound?
Answer: The value was “almost completely rescue”.

Question: How did the “ET induced cortical actin rearrangement” value [1, 4] turn out when `O=C(NC[C@H](O)CO)c1ccncc1Nc1ccc(I)cc1F` [AS703026] was run?
Answer: Its value is “significantly reduced”.

Question: And the “ET-mediated actin remodeling / rearrangement” value [1]?
Answer: The value was “strongly inhibit; also recorded: almost completely rescue”.

Question: What about the “protection” value [2] of the same compound?
Answer: Its value is “near complete protection; also recorded: almost complete protection”.

Question: And the “footpad swelling (edema) following ET injection” value ([2]; pre-treatment 33 mg/kg)?
Answer: Its value is “consistently block”.

Question: What about the “ET induced CFL1 activation (dephosphorylation)” value (CFL1; [5]) of the same compound?
Answer: Its value is “significantly inhibited”.

Question: What about the “ET induced Rac1 activation (Rac1-GTP)” value (Rac1; 4 h (FIG. 3H)) of the same compound?
Answer: The value was “significantly inhibited”.

Question: What about the “ET induced disruption of monolayer integrity” value (HBMEC monolayer) of the same compound?
Answer: Its value is “significantly reduced”.

Question: What about the “ET-mediated cell-cell barrier disruption” value (HBMEC monolayer; [6]) of the same compound?
Answer: The value was “almost completely rescue”.

Question: How did the “footpad swelling (edema) following ET injection” value ([2]; pre-treatment 10 mg/kg) turn out when `CC(C)(C)c1cc(C(=O)/C(C#N)=N/Nc2cccc(Cl)c2)no1` [ES1-09] was run?
Answer: Its value is “consistently block”.

Question: Which “protection” value [2] does the source give for `CS(=O)(=O)N1CCN(Cc2cc3nc(-c4cccc5[nH]ncc45)nc(N4CCOCC4)c3s2)CC1` [GDC-0941, pictilisib] here?
Answer: Its value is “near complete protection; also recorded: almost complete protection”.

Question: And the “footpad swelling (edema) following ET injection” value ([2]; pre-treatment 75 mg/kg)?
Answer: Its value is “consistently block”.

Question: What about the “ET-mediated cell-cell barrier disruption” value (HBMEC monolayer) of the same compound?
Answer: The value was “almost completely rescue”.

Question: What does the source list for `CCN(CC)CCCC(C)Nc1nc(C)cc(Nc2ccc3nc(C)cc(N)c3c2)n1.Cl.Cl.Cl` (stereo not shown) [NSC23766, N(6)˜[2-[[4˜(diethylamino)-1-methylbutyl]amino]-6-methyl-4-pyrimidinyl]-2-methyl-4,6-quinolinediamine trihydrochloride]?
Answer: ET induced cortical actin rearrangement ([1]; ET 250 and 500 ng/ml, Alexa 488 phalloidin (FIG. 2C)): almost completely inhibited; ET-mediated actin remodeling / rearrangement ([1]; trihydrochloride): strongly inhibit; also recorded: almost completely rescue; protection against ET-induced footpad swelling (edema) ([2]; trihydrochloride): near complete protection; also recorded: almost complete protection; footpad swelling (edema) following ET injection ([2]; pre-treatment 10 mg/kg): consistently block; ET induced cell area reduction [3]: significantly reduced; ET induced CFL1 activation (dephosphorylation) (CFL1; [5]): significantly inhibited; ET induced CFL1 activation (dephosphorylation) (CFL1; ET 50, 100 and 250 ng/ml, 4 h (FIG. 4F)): significantly inhibited; ET induced Rac1 activation (Rac1-GTP) (Rac1; 4 h (FIG. 3D)): completely rescued; ET induced disruption of monolayer integrity (HBMEC monolayer): significantly reduced; ET-mediated cell-cell barrier disruption (HBMEC monolayer; [6]): almost completely rescue
